Legend:
[1] = test system: lymphocytes (peripheral immune cells); assay: intracellular thiol expression of peripheral immune cells (CMFDA flow cytofluorimetry); format: cell-based, human; settings: for intracellular thiol expression: α-lipoic acid 50 μM, captopril 10 μM, combination at the same concentrations
Protocol: Peripheral immune cells of healthy donors (n=9) were isolated from the peripheral blood by means of density gradient centrifugation. Lymphocytes having a donor-dependent relative proportion of about 90% in this case normally represent the main fraction of the resulting total population of mononuclear cells. 10% of the mononuclear cells are represented by monocytes. The mononuclear cells obtained were taken up in special cell culture media and incubated in a gas incubator at 37° C., a relative humidity of 98% and 5% relative air-CO2 content. The metabolism of the primarily resting immune cells was activated by means of mitogenic stimulation (0.5 μg/ml of phytohemagglutinin). In order to test the influence of the combinations used according to the invention on the thiol status of thiol-deficient immune cells, these were artificially thiol-depleted. This was carried out by culturing in thiol-deficient media (RPMI 1603) according to tested procedures. Comparison cultures using whole media (RPMI 1640) served for the definition of the best possible normal value under culture conditions. […] Primarily nonfluorogenic CMFDA is in this case passively taken up by the cell. Binding to cytoplasmic thiol groups takes place via the chloromethyl radical. After removal of the acetate radicals by nonspecific cellular esterases, this, now cell membrane-impermeable complex becomes fluorogenic at an excitation wavelength λex=490 nm with an emission wavelength λem=520 nm. The mean fluorescence intensity of the sample (10,000 cells) is directly proportional to the concentration of the intracellular thiol groups. In FIG. 1, the action of the combination of α-lipoic acid and ambroxole (FIG. 1a) and α-lipoic acid and enalapril (FIG. 1b) on the intracellular thiol expression of lymphocytes is shown. […] The data are shown as the ratio of the cellular fluorescence intensity for calibration particles (beads) in each case analyzed in parallel. The active compound concentration of the respective combination is identical to the concentrations of the individual components.

peritoneal macrophages = assay: membrane-bound thiol expression of peritoneal macrophages; format: cell-based, human; settings: FIG. 5
Protocol: Peritoneal macrophages were isolated from the effluate of the peritoneal dialysis of high-grade renally insufficient patients, taken up in cell culture medium and incubated in a gas incubator at 37° C., a relative humidity of 98% and 7.5% relative air-CO2 content. In order to test the influence of the combinations used according to the invention on the thiol status of the peritoneal macrophages, in each case a fraction was treated with α-lipoic acid, the effector of the glutathione metabolism ambroxole or the ACE inhibitor enalapril or with the combination of α-lipoic acid/ambroxole or α-lipoic acid/enalapril, while in each case a further fraction was used as an untreated control. The determination of the cellular thiol status was carried out by means of the measuring method described under 1. The membrane expression of thiols was determined by means of the mean fluorescence intensity (mfi) of the sample (3000 cells/measurement) after coupling to a chloromethylfluorochrome derivative. In FIG. 5, the action of the combination of α-lipoic acid and enalapril (FIG. 5b) on the membrane-bound thiol expression of peritoneal macrophages in the experimental setup described above is presented. The membrane expression of thiols was determined by means of the mean fluorescence intensity (mfi) of the sample (3000 cells/measurement) after coupling to a chloro-methylfluorochrome derivative.

In the case of `O=C(O)CCCCC1CCSS1` (stereo not drawn) [α-lipoic acid], the intracellular thiol expression ([1]; culture period 0 d) is reported as 2.88 ± 0.20 mfiBeads/Ratio, the intracellular thiol expression ([1]; culture period 1 d) is reported as 2.81 ± 0.23 mfiBeads/Ratio and the intracellular thiol expression ([1]; culture period 2 d) is reported as 2.76 ± 0.50 mfiBeads/Ratio. It also gave an intracellular thiol expression ([1]; culture period 3 d) of 2.63 ± 0.60 mfiBeads/Ratio, an intracellular thiol expression ([1]; culture period 4 d) of 2.41 ± 0.40 mfiBeads/Ratio and an intracellular thiol expression ([1]; culture period 6 d) of 2.23 ± 0.50 mfiBeads/Ratio. For the same compound, the intracellular thiol expression ([1]; culture period 8 d) was 2.02 ± 0.30 mfiBeads/Ratio, the intracellular thiol expression ([1]; culture period 10 d) was 1.89 ± 0.30 mfiBeads/Ratio and the intracellular thiol expression ([1]; culture period 12 d) was 1.86 ± 0.68 mfiBeads/Ratio. The intracellular thiol expression ([1]; culture period 14 d) was 1.83 ± 0.60 mfiBeads/Ratio, the “effect on the intracellular thiol deficit (in words)” value ([1]; thiol-deficient conditions (1603), FIG. 1) was “Neither by α-lipoic acid alone nor by the individual application of the effectors was a complete equalization of the thiol deficit possible” and the “effect on the membrane-bound thiol expression of peritoneal macrophages (in words)” value (peritoneal macrophages) was “very marked effect of the sole administration of α-lipoic acid is to be noted here, which, however, is cancelled out again after 4 days of treatment”.
